Assay results taken from patent US20170318812A1, “Plant and Crop Growth Regulating/Biostimulant Formulations and Methods of Use” (Arysta Lifescience North America, LLC, priority 2014, published 2017).
Several values for one entry are separate records, joined by “and”; a condition that tells them apart may be missing. Identical values can stand only once.

Experiments:
[1] = system: SORVU Sorghum bicolor (Grain sorghum); experiment: Ipfencarbazone biostimulant effect, early post emergence foliar application, greenhouse pots, plant height: sorghum; format: in vivo; conditions: for Plant HEIGHT, Mean / Plant HEIGHT, single plots: Grain sorghum DKB 590, 15 DA-A; for HEIGHT, percent of untreated check (APoC) / HEIGHT, treatment mean / HEIGHT, single plots (replicates): SORVU DKB 590
Source text: (§1) The original objective of this Example was to evaluate the herbicidal effect of ipfencarbazone when applied as a post emergent treatment to a range of selected crops and weeds. Unexpectedly, crop plant growth stimulation was observed. The actual species of weeds and crops are listed in the summary data tabulated below and in FIGS. 1-13. By convention each plant species has a Bayer code (5-letter name) with the scientific name for the plant referenced in FIGS. 1-13. In each Figure, each tray contains the same configuration of weeds and/or crops. In each Figure there is one replication of each treatment (six treatments in total). The top three photographs in each Figure show the Bayer Codes and bottom three photographs are aligned with the top three facilitating viewing of the same plant species. Throughout the Examples various abbreviations as conventional shorthand notation and will be appreciated by those skilled in the art. Some exemplary abbreviations include, “CV”=Co-efficient of Variation,” “LSD”=Least Significant Difference” (G/L (gram per L) AND GA/L (gram of active ingredient per L); “SC”=suspension concentrate formulation. The diluent in all treatments was water. By convention factors that are identical in all treatments (e.g. diluent and surfactant) are not listed in each treatment.
(§2) Methods: The indicated size pots (see Tables below) are filled with a specific soil, the soil properties being indicated below. The referenced crops and weeds are planted by hand in each pot. […] The experiments include six treatments each replicated three times on each crop/weed species. At a specific time after emergence each crop and weed species was treated with ipfencarbazone plus a non-ionic surfactant (NIS). In the present Example, the surfactant employed was ENERGIC™ (non-ionic surfactant). The application timing is indicated in each of the Tables (1 or 2 leaf stage) below. Ipfencarbazone plus surfactant was diluted in water and applied at a rate equivalent to about 250 L/ha. Ipfencarbazone was applied using a track sprayer. After treatment, the pots were randomized in a greenhouse. At each assessment (indicated by “days after treatment” or DAT) the height of each plant was measured. The letters next to each mean indicate the level of statistical significance.
(§3) Replications: 3, Untreated treatments: 1, Design: Randomized Complete Block (RCB), Treatment units: Treated ‘Plot’ experimental unit size, Dry Form. Unit: %, Treated ‘Plot’ experimental unit size Width: 1 meter, Treated ‘Plot’ experimental unit size Length: 1.4 meters, Application volume: 250 L/ha, Mix size: 0.15 liters, […]

[2] = system: GLXMA Glycine max (Soybean); experiment: Ipfencarbazone biostimulant effect, early post emergence foliar application, greenhouse pots, plant height: soybean; format: in vivo; conditions: GLXMA BMXPOTENCIA
Source text: as §1, §2, §3

[3] = 62.5 g ai/ha + Energic NIS 0.2 % v/v
[4] = 125 g ai/ha + Energic NIS 0.2 % v/v
[5] = 250 g ai/ha + Energic NIS 0.2 % v/v
[6] = 500 g ai/ha + Energic NIS 0.2 % v/v

SMILES: CC(C)N(C(=O)n1cnn(-c2ccc(Cl)cc2Cl)c1=O)c1ccc(F)cc1F [ARY-0572-001, ipfencarbazone]
- Plant HEIGHT, Mean [1, 3]: 59.9 cm
- Plant HEIGHT, single plots [1, 3]: 55.3 cm and 68.0 cm and 56.3 cm
- Plant HEIGHT, Mean [1, 4]: 59.3 cm
- Plant HEIGHT, single plots [1, 4]: 68.7 cm and 55.0 cm and 54.3 cm
- Plant HEIGHT, Mean [1, 5]: 61.3 cm
- Plant HEIGHT, single plots [1, 5]: 58.0 cm and 65.0 cm and 61.0 cm
- Plant HEIGHT, Mean [1, 6]: 60.4 cm
- Plant HEIGHT, single plots [1, 6]: 56.0 cm and 66.3 cm and 58.8 cm
- Plant HEIGHT, Mean ([1]; 1000 g ai/ha + Energic NIS 0.2 % v/v): 22.7 cm
- HEIGHT, percent of untreated check (APoC) ([1]; 62.5 g ai/ha, 15 DA-A): (246.1%)
- HEIGHT, treatment mean ([1]; 62.5 g ai/ha, 15 DA-A): 59.9 a cm
- HEIGHT, percent of untreated check (APoC) ([1]; 62.5 g ai/ha, 28 DA-A): (296.5%)
- HEIGHT, treatment mean ([1]; 62.5 g ai/ha, 28 DA-A): 85.0 a cm and 85.0 cm
- HEIGHT, single plots (replicates) ([1]; 62.5 g ai/ha, 28 DA-A, plots 102, 205, 302): 73.0 cm and 110.7 cm and 71.3 cm
- HEIGHT, percent of untreated check (APoC) ([1]; 125 g ai/ha, 15 DA-A): (243.8%)
- HEIGHT, treatment mean ([1]; 125 g ai/ha, 15 DA-A): 59.3 a cm
- HEIGHT, percent of untreated check (APoC) ([1]; 125 g ai/ha, 28 DA-A): (277.1%)
- HEIGHT, treatment mean ([1]; 125 g ai/ha, 28 DA-A): 79.4 a cm and 79.4 cm
- HEIGHT, single plots (replicates) ([1]; 125 g ai/ha, 28 DA-A, plots 103, 206, 305): 102.7 cm and 71.3 cm and 64.3 cm
- HEIGHT, percent of untreated check (APoC) ([1]; 250 g ai/ha, 15 DA-A): (252.1%)
- HEIGHT, treatment mean ([1]; 250 g ai/ha, 15 DA-A): 61.3 a cm
- HEIGHT, percent of untreated check (APoC) ([1]; 250 g ai/ha, 28 DA-A): (355.0%)
- HEIGHT, treatment mean ([1]; 250 g ai/ha, 28 DA-A): 101.8 a cm and 101.8 cm
- HEIGHT, single plots (replicates) ([1]; 250 g ai/ha, 28 DA-A, plots 104, 201, 306): 101.3 cm and 104.0 cm and 100.0 cm
- HEIGHT, percent of untreated check (APoC) ([1]; 500 g ai/ha, 15 DA-A): (248.2%)
- HEIGHT, treatment mean ([1]; 500 g ai/ha, 15 DA-A): 60.4 a cm
- HEIGHT, percent of untreated check (APoC) ([1]; 500 g ai/ha, 28 DA-A): (266.7%)
- HEIGHT, treatment mean ([1]; 500 g ai/ha, 28 DA-A): 76.4 a cm and 76.4 cm
- HEIGHT, single plots (replicates) ([1]; 500 g ai/ha, 28 DA-A, plots 105, 202, 301): 44.7 cm and 89.7 cm and 95.0 cm
- HEIGHT, percent of untreated check (APoC) ([1]; 1000 g ai/ha, 15 DA-A): (93.2%)
- HEIGHT, treatment mean ([1]; 1000 g ai/ha, 15 DA-A): 22.7 b cm
- HEIGHT, percent of untreated check (APoC) ([1]; 1000 g ai/ha, 28 DA-A): (123.6%)
- HEIGHT, treatment mean ([1]; 1000 g ai/ha, 28 DA-A): 35.4 b cm and 35.4 cm
- HEIGHT, single plots (replicates) ([1]; 1000 g ai/ha, 28 DA-A, plots 106, 203, 304): 75.3 cm and 9.3 cm and 21.7 cm
- HEIGHT, percent of untreated check (APoC) ([2]; 62.5 g ai/ha, 15 DA-A): (113.4%)
- HEIGHT, treatment mean ([2]; 62.5 g ai/ha, 15 DA-A): 15.0 a cm and 15.0 cm
- HEIGHT, single plots (replicates) ([2]; 62.5 g ai/ha, 15 DA-A, plots 102, 205, 302): 15.3 cm and 14.8 cm (2×)
- HEIGHT, percent of untreated check (APoC) ([2]; 62.5 g ai/ha, 28 DA-A): (146.3%)
- HEIGHT, treatment mean ([2]; 62.5 g ai/ha, 28 DA-A): 30.6a cm
- HEIGHT, percent of untreated check (APoC) ([2]; 125 g ai/ha, 15 DA-A): (84.9%)
- HEIGHT, treatment mean ([2]; 125 g ai/ha, 15 DA-A): 11.2 abc cm and 11.2 cm
- HEIGHT, single plots (replicates) ([2]; 125 g ai/ha, 15 DA-A, plots 103, 206, 305): 6.2 cm and 13.5 cm and 14.0 cm
- HEIGHT, percent of untreated check (APoC) ([2]; 125 g ai/ha, 28 DA-A): (113.8%)
- HEIGHT, treatment mean ([2]; 125 g ai/ha, 28 DA-A): 23.8 ab cm
- HEIGHT, percent of untreated check (APoC) ([2]; 250 g ai/ha, 15 DA-A): (71.8%)
- HEIGHT, treatment mean ([2]; 250 g ai/ha, 15 DA-A): 9.5 bcd cm and 9.5 cm
- HEIGHT, single plots (replicates) ([2]; 250 g ai/ha, 15 DA-A, plots 104, 201, 306): 8.3 cm and 10.8 cm and 9.3 cm
- HEIGHT, percent of untreated check (APoC) ([2]; 250 g ai/ha, 28 DA-A): (87.8%)
- HEIGHT, treatment mean ([2]; 250 g ai/ha, 28 DA-A): 18.3 bc cm
- HEIGHT, percent of untreated check (APoC) ([2]; 500 g ai/ha, 15 DA-A): (45.4%)
- HEIGHT, treatment mean ([2]; 500 g ai/ha, 15 DA-A): 6.0 d cm and 6.0 cm
- HEIGHT, single plots (replicates) ([2]; 500 g ai/ha, 15 DA-A, plots 105, 202, 301): 8.0 cm and 1.3 cm and 8.7 cm
- HEIGHT, percent of untreated check (APoC) ([2]; 500 g ai/ha, 28 DA-A): (63.3%)
- HEIGHT, treatment mean ([2]; 500 g ai/ha, 28 DA-A): 13.2 c cm
